{"source": "patent US20170115265A1", "about": "“Use of Visibly Detectable Compounds as Performance Reference Compounds in Passive Sampling Devices” (Geosyntec Consultants, Inc., priority 2015, published 2017)", "key": {"[1]": {"conditions": "cited from earlier work; for Log KOW value: drugs, reported by Scheytt et al. 2005; for Log KOW: source not stated; for Log KOW value (may be estimate): common dyes, Table 1, values said to be known"}, "[2]": {"assay": "Example 7: elimination of dye PRCs from PE PSDs in jars of sediment and water agitated 14 days on a shaker table", "assay_type": "physicochemical", "conditions": "PE PSD", "source_text": "Two additional 3×3 cm PSDs were spiked with 10 unlabeled PCB PRCs that are not visibly detectable, but are routinely used as PRCs in passive sampling applications.\nThe five jars containing the PSDs were closed and agitated for a period of 14 days on a shaker table. The other four dye-spiked PSDs and PCB-spiked PSD were held in storage. Following retrieval of the PSDs deployed in the sediment after 14 days, the PSDs were extracted in solvent (e.g., 50-mL mixture of hexane and methylene chloride). […] Concentrations of these dyes in the PE could be calculated assuming a known mass of each PE piece. The solvent extracts of the PSDs that had been exposed to the sediment for 14 days and held in storage for 14 days would be measured for PCBs using high-resolution gas chromatography/high-resolution mass spectrometry with an approximate 30- to 60-minute analysis time per sample.\n(§1) A linear regression model would then be estimated using the Log10 ke values as the dependent variable (y axis) and the Log10 KPE values as the independent variable […]."}, "[3]": {"assay": "Example 2: hypothetical 28-day sediment deployment of PE PSD spiked with three dye PRCs", "assay_type": "physicochemical", "conditions": "for Log10-transformed ke (hypothetical) / ke (hypothetical): PE PSD 28 days in sediment", "source_text": "Two PSD could be created (each consisting of a 4×10 cm piece of PE).\nThe KPE values of the 3 dyes are dissimilar to that of PCB-60, yet they may be used to provide a ke for PCB-60 according to the following approach. One PSD containing the three above dyes would be deployed into sediment for a period of 28 days, and the other PSD containing the three above dyes would be held in storage. Following retrieval of the PSD deployed in the sediment, both PSDs would be extracted in solvent (e.g., 50-mL mixture of hexane and methylene chloride). […] Concentrations of these dyes in the PE could be calculated assuming a known mass of each PE piece. The solvent extract of the PSD that had been exposed to the sediment for 28 days would be measured for PCBs using high-resolution gas chromatography/high-resolution mass spectrometry with an approximate 30- to 60-minute analysis time per sample. Via this analysis, the concentration of PCB-60 in the PSD that had been exposed to the sediment for 28 days could be determined.\nas §1\nFIG. 2 is a line graph showing this equation plotted as Log10 Ke (day-1) versus Log10 KPE (liters/kg/PE). […] By using the equation from the plot shown in FIG. 2, the predicted ke value of PCB-60 could be interpolated from its known KPE value."}, "[4]": {"assay": "polyethylene-water partition coefficient (KPE) of PCBs according to Smedes et al.", "assay_type": "physicochemical", "conditions": "Log10 of the cited KPE", "source_text": "Assuming the KPE values are roughly similar (i.e., within 10%) between the dye and the analyte of interest, the dye could also be an appropriate PRC to use for other compounds. For example, given that KPE Sudan III KPE is 390,000 L/kg, Sudan III could be used as a PRC for compounds with KPE values from 350,000 L/kg to 430,000 L/kg."}, "[5]": {"assay": "Example 1: elimination of PRCs from PE passive sampling devices deployed 14 days in marine aquatic sediment", "assay_type": "physicochemical", "conditions": "PE PSD at Station 6, marine sediment", "source_text": "Twenty PSDs were created (each consisting of a 4×10 cm piece of PE). Ten of the PSDs were spiked with PCB-36 (which is not visibly detectable) and ten of the PSDs were spiked with Sudan III, a visibly detectable PRC within the scope of the present disclosure. The 20 spiked PSDs then were inserted in the top 10 cm of aquatic sediment at a marine (ocean) site by scuba divers at ten locations within a half-acre area. At each of the 10 locations, one PSD containing PCB-36 and one PSD containing Sudan III were deployed.\nAfter 14 days, the PSDs were collected by divers, brought to the surface, placed in a shipping container, and sent to a laboratory, where they were wiped with moistened tissues, placed in small vials, and extracted with solvent. […] The 13 solvents (from extraction of 10 exposed PSDs and 3 trip blanks PSDs) into which the PCB-36-spiked PSDs were extracted were then measured for PCBs using high-resolution gas chromatography/high-resolution mass spectrometry with an approximate 30- to 60-minute analysis time per sample. Via this analysis, the concentrations of PCB-36 in the 13 PCB-36-spiked PSDs were determined. […] Via this analysis, the concentration of Sudan III in the 13 Sudan III-spiked PSDs was determined. […]"}, "[6]": {"assay": "Example 8: Sudan III elimination from PE PSDs, marine sediment versus agitated sediment, 14 days", "assay_type": "physicochemical", "protocol": "Six 3×3 cm PSDs and fourteen 4×10 cm PSDs were spiked with Sudan III dye. Eleven of the larger (4×10 cm) PSDs were inserted in the top 10 cm of aquatic sediment at a marine (ocean) site by scuba divers at ten locations within a half-acre area. Three of the smaller (3×3 cm) PSDs were deployed into […] 8-oz jars containing approximately 100 g (wet weight) sediment and 150 mL water. The three jars containing the PSDs were closed and agitated for a period of 14 days on a shaker table. […] The solvents from the PSDs were analyzed on a benchtop UV/Vis spectrophotometer at wavelengths of 465 nm (to indicate the concentration of Sudan III in the solvent). Concentrations of these dyes in the PE could be calculated assuming a known mass of each PE piece.\nUsing the average concentrations of Sudan III in the unexposed PSDs (to represent the t=0 concentration) and the concentration of Sudan III in the PSDs that had been exposed to the marine sediment and agitated sediment for 14 days (the time t concentrations), one could estimate the ke values using the equation provided in Example 1. […] Thus, the dye approach can be used to quantify the increase in sampling rates for various methods (i.e., unagitated deployments, various types of agitated deployments), and provides a low cost and efficient method compared to other PRCs."}}, "note": "Like-named read-outs stand apart in the source and are kept apart here.", "data": [{"smiles": "CC(C)Cc1ccc(C(C)C(=O)O)cc1", "note": "(centres unmarked) [Ibuprofen]", "values": [{"measurement": "Log KOW value", "setting": "[1]", "result": 2.48}]}, {"smiles": "Oc1ccc(N=Nc2ccccc2)c(O)c1", "note": "[Sudan Orange G]", "values": [{"measurement": "ke", "setting": "[2]", "result": 0.41, "unit": "day⁻¹"}, {"measurement": "Log KOW", "setting": "[1]; dye compounds of Table 2", "result": 3.9}, {"measurement": "Log KOW", "setting": "[1]; dye compounds of Table 4", "result": 3.9}, {"measurement": "Log10-transformed ke (hypothetical)", "setting": "[3]", "result": "−0.1", "unit": "day^−1"}, {"measurement": "ke (hypothetical)", "setting": "[3]", "result": 0.8, "unit": "day⁻¹"}]}, {"smiles": "COc1ccc(OC)c(N=Nc2c(O)ccc3ccccc23)c1", "note": "[Citrus Red 2]", "values": [{"measurement": "Log KOW value (may be estimate)", "setting": "[1]", "result": 5.67}]}, {"smiles": "Clc1ccc(-c2ccc(Cl)c(Cl)c2Cl)cc1", "note": "[PCB-60]", "values": [{"measurement": "estimated hypothetical ke interpolated from KPE", "setting": "[3]; from regression of FIG. 2", "result": 0.028, "unit": "day⁻¹"}, {"measurement": "Log10 KPE", "setting": "[4]", "result": 5.9, "unit": "L/kg PE"}]}, {"smiles": "CCN(CC)c1ccc2c(-c3ccccc3C(=O)O)c3ccc(=[N+](CC)CC)cc-3oc2c1.[Cl-]", "note": "[Rhodamine B]", "values": [{"measurement": "Log KOW", "setting": "[1]; dye compounds of Table 2", "result": 1.8}]}, {"smiles": "CC1(C)Nc2cccc3c(N=Nc4ccc(N=Nc5ccccc5)c5ccccc45)ccc(c23)N1", "note": "[Sudan Black B]", "values": [{"measurement": "Log10-transformed ke", "setting": "[2]", "result": "-3.1 log10(day^−1)"}, {"measurement": "ke", "setting": "[2]", "result": 0.00072, "unit": "day⁻¹"}, {"measurement": "Log KOW", "setting": "[1]; dye compounds of Table 4", "result": 8.8}]}, {"smiles": "Clc1cccc(-c2cc(Cl)cc(Cl)c2)c1", "note": "[PCB-36]", "values": [{"measurement": "elimination rate ke", "setting": "[5]", "result": 0.043, "unit": "day⁻¹"}]}, {"smiles": "O=C(O)Cc1ccccc1Nc1c(Cl)cccc1Cl", "note": "[Diclofenac]", "values": [{"measurement": "Log KOW value", "setting": "[1]", "result": 1.9}]}, {"smiles": "O=C1/C(=C2\\Nc3ccccc3C2=O)Nc2ccccc21", "note": "[Indigo dye]", "values": [{"measurement": "Log KOW value (may be estimate)", "setting": "[1]", "result": 3.7}]}, {"smiles": "Oc1ccc2ccccc2c1N=Nc1ccccc1", "note": "[Sudan I]", "values": [{"measurement": "Log KOW", "setting": "[1]; dye compounds of Table 2", "result": 5.5}]}, {"smiles": "CC(C)(Oc1ccc(Cl)cc1)C(=O)O", "note": "[Clofibric acid]", "values": [{"measurement": "Log KOW value", "setting": "[1]", "result": 2.88}]}, {"smiles": "Oc1ccc2ccccc2c1N=Nc1ccc(N=Nc2ccccc2)cc1", "note": "[Sudan III]", "values": [{"measurement": "ke", "setting": "[2]", "result": 0.046, "unit": "day⁻¹"}, {"measurement": "Log KOW", "setting": "[1]; dye compounds of Table 2", "result": 5.7}, {"measurement": "Log KOW", "setting": "[1]; dye compounds of Table 4", "result": 5.7}, {"measurement": "elimination rate ke", "setting": "[5]", "result": 0.032, "unit": "day⁻¹"}, {"measurement": "Log10-transformed ke (hypothetical)", "setting": "[3]", "result": "−1.4", "unit": "day^−1"}, {"measurement": "ke (hypothetical)", "setting": "[3]", "result": 0.04, "unit": "day⁻¹"}, {"measurement": "average ke", "setting": "[6]; agitated sediment (shaker table)", "result": 0.094, "unit": "day⁻¹"}, {"measurement": "average ke", "setting": "[6]; marine sediment (unagitated)", "result": 0.030, "unit": "day⁻¹"}]}, {"smiles": "Cc1ccc(Nc2ccc(O)c3c2C(=O)c2ccccc2C3=O)cc1", "note": "[Solvent Violet 13]", "values": [{"measurement": "ke", "setting": "[2]", "result": 0.16, "unit": "day⁻¹"}, {"measurement": "Log KOW", "setting": "[1]; dye compounds of Table 2", "result": 6.2}, {"measurement": "Log KOW", "setting": "[1]; dye compounds of Table 4", "result": 6.2}, {"measurement": "Log10-transformed ke (hypothetical)", "setting": "[3]", "result": -1.7, "unit": "day^−1"}, {"measurement": "ke (hypothetical)", "setting": "[3]", "result": 0.02, "unit": "day⁻¹"}]}, {"smiles": "Cc1c(C(C)C)c(=O)n(-c2ccccc2)n1C", "note": "[Propyphenazone]", "values": [{"measurement": "Log KOW value", "setting": "[1]", "result": 2.02}]}]}
